Columns and labels:
ShHTL7 = molecular target: T1, ShHTL7 (Striga hermonthica, UniProt A0A0M3PNA2); test: ITC binding to ShHTL7; details: 3 mM KAR1 into 150 μM protein
T1 sequence (A0A0M3PNA2 1-271): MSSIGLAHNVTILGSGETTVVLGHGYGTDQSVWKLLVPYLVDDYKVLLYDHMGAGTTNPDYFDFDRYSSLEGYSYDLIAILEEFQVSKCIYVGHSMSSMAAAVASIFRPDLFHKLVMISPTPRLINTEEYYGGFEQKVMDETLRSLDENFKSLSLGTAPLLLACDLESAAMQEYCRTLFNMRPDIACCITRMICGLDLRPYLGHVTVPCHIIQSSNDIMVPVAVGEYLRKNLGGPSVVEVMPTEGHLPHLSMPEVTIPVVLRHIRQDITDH
Procedure: (§1) The binding assays were performed using a MicroCal iTC200 isothermal titration calorimeter (GE Healthcare). Prior to the ITC experiments, concentrated ShD14, ShHTL1, ShHTL4, and ShHTL7 were exchanged into a buffer consisting of 20 mM HEPES (pH 8.0) and 150 mM NaCl to remove dithiothreitol and were then adjusted to a final concentration of 150 μM. The sample cell was filled with protein solution (204 μL). Nineteen consecutive 2.0-μL aliquots of 3 mM KAR1 (3-methyl-2H-furo [2,3-c] pyran-2-one) were injected into a prepared protein solution at 150 s intervals at 20 °C. The first injection volume was 0.4 μL, and the observed thermal peak was excluded from the data analysis. A negative control was obtained by titrating 3 mM KAR1 into the buffer (20 mM HEPES, pH 8.0, 150 mM NaCl) in the same manner. Data fitting was performed in “one set of sites” mode, and KD values were calculated using Origin software provided by MicroCal.
(§2) Supplementary Figure 3. Binding analyses of ShHTLs and ShD14 with KAR1. The ITC
(§3) assays were performed by adding 3 mM KAR1 to 150 μM ShHTL1 (a), ShHTL4 (b), ShHTL7
(§4) (c), ShD14 (d) and AtHTL (e).
(§5) ShHTL1 and AtHTL were fitted using the MicroCal origin software with the “one binding site”
(§6) model. The ITC assays titrating KAR1 into ShHTL1 and AtHTL were repeated three times
(§7) independently (data not shown).

[1] = system: ShHTL3–ShMAX2 interaction; test: Y2H assay ShHTL3-ShMAX2; assay type: cell-based, Striga hermonthica; details: 5 μM ligand
Excerpt: Full-length sequences of ShD14, ShHTL1, ShHTL3, ShHTL4, ShHTL7, and AtHTL were cloned into the pGBKT7 vector as bait (Clontech), and the coding regions of ShMAX2 and AtMAX2 were cloned into the pGADT7 vector as prey (Clontech). MAX2 was supposed to be unstable without ASK1. Therefore, AtASK1 was cloned into the N terminus of ShMAX2 and AtMAX2 with a 16-residue linker for co-expression. The bait and prey plasmids were co-transformed into the yeast (Saccharomyces cerevisiae) strain Y2HGold (Clontech) by the lithium acetate-mediated method. The presence of both plasmids was confirmed by growth on SD/-Leu/-Trp (-LT) plates. […] The plates were incubated for 5 days at 30 °C.

ShHTL3 and ShMAX2 = test: In vitro pull-down ShHTL3-ShMAX2; assay type: binding, Striga hermonthica; details: 50 μM ligand
Procedure: Ni-NTA pull-down assays were performed with purified ShMAX2 or AtMAX2 as the bait and […]14, or GST-AtD14 as the prey. The molecular weight of the HTL/D14 proteins is nearly the same as that of ASK1; therefore, the HTL/D14 proteins were fused to GST, increasing their molecular weight for detection on SDS-PAGE gels. […] The protein complexes were then eluted with 100 μL of elution buffer containing 50 mM Bis-Tris, pH 6.8, 500 mM NaCl, and 500 mM imidazole and subjected to SDS-PAGE analysis.

AtHTL–AtMAX2 interaction = AtHTL–AtMAX2 interaction (Arabidopsis thaliana, UniProt Q9SZU7); details: pull-down, 50 μM ligand, western blotting
Procedure: and AtHTL were detected using an anti-GST antibody, as indicated by the black arrows. (b)
1/10, 1/20, 1/50, 1/100, 1/1000) of transformed yeast cells was plated on control medium (SD/-
Leu/-Trp; -LT) and selective medium (SD/-Leu/-Trp/-His/-Ade; -LTHA) in the absence or
(1 picture or pasted object on this page, not shown here)

[2] = system: ShHTL1–ShMAX2 interaction; test: In vitro pull-down ShHTL1-ShMAX2; assay type: binding, Striga hermonthica; details: 50 μM ligand
Procedure: Ni-NTA pull-down assays were performed with purified ShMAX2 or AtMAX2 as the bait and […]14, or GST-AtD14 as the prey. The molecular weight of the HTL/D14 proteins is nearly the same as that of ASK1; therefore, the HTL/D14 proteins were fused to GST, increasing their molecular weight for detection on SDS-PAGE gels. […] The protein complexes were then eluted with 100 μL of elution buffer containing 50 mM Bis-Tris, pH 6.8, 500 mM NaCl, and 500 mM imidazole and subjected to SDS-PAGE analysis. Samples of […] […] also subjected to western blotting after separation by SDS-PAGE. The proteins were transferred from the SDS-PAGE gel to a polyvinylidene fluoride (PVDF) membrane (Merck Millipore). […] Next, the membrane was incubated with anti-GST antibody as the primary antibody (71097-3; Novagen; diluted 1:10,000) at 25 °C for 1.5 h and then washed 3 times with TBST buffer. Anti-mouse antibody (32430; Thermo Scientific; diluted 1:4000) conjugated to horseradish peroxidase was used as the secondary antibody. After incubation with the secondary antibody at 25 °C for 1.5 h, the membrane was washed 3 times. For detection, SuperSignal West Femto Maximum Sensitivity Substrate (Thermo Scientific) was used as the chemiluminescence substrate and ImageQuant LAS 4000 mini (GE Healthcare) was used for imaging.

ShHTL7 L124F/T190F/C194F = ShHTL7 L124F/T190F/C194F (Striga hermonthica, UniProt A0A0M3PNA2, C194F/L124F/T190F); test: ITC binding to ShHTL7 triple mutation; details: 3 mM KAR1 into 150 μM mutant
Procedure: Supplementary Figure 8. Activity measurements of ShHTL7 mutants. (a-b), Binding analyses of the T190F/C194F double mutation (a) and L124F/T190F/C194F triple mutation (b) of ShHTL7 with KAR1 by ITC (shown in black). The ITC assays were performed by adding 3 mM KAR1 to 150 μM ShHTL7 mutants in the same manner as in Supplementary Figure 3. Results of titrating buffer to 150 μM ShHTL7 mutants are shown in red. The upper panel for each […]
injection (black squares). (c) YLG hydrolytic activity of ShHTL7 and its mutants. As described

ShHTL3 = molecular target: ShHTL3; design: method as in PMID 27507097; details: ITC; read-out: KD of KAR1 to ShHTL3; cited from earlier work
ShD14 = test: ITC binding to ShD14; design: species or system Striga hermonthica; details: 3 mM KAR1 into 150 μM protein
Procedure: as §1, §2, §3, §4, §5, §6, §7

Sequence of AtHTL–AtMAX2 interaction (Q9SZU7 whole entry): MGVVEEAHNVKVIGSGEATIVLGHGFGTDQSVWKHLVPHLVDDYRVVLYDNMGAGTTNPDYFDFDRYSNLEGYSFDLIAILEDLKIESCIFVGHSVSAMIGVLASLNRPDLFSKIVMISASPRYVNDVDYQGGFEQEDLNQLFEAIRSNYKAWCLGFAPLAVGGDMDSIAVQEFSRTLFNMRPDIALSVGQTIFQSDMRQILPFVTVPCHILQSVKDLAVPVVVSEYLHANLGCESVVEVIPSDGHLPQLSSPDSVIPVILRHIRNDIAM
Sequence of ShHTL7 L124F/T190F/C194F (A0A0M3PNA2 whole entry L124F/T190F/C194F): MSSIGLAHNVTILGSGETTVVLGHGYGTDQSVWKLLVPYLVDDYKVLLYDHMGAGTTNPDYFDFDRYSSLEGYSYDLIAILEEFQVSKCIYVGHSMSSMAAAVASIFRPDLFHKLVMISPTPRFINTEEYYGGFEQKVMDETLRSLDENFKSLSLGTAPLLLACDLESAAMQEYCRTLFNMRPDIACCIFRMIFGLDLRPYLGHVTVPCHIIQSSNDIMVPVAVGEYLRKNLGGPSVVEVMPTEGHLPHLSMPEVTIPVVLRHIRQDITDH

Cc1c2ccocc-2oc1=O [KAR1, 3-methyl-2H-furo [2,3-c] pyran-2-one]
KAR1 binding ability of ShHTL7 (ShHTL7): no significant KAR1 binding ability | ligand-induced ShHTL3-ShMAX2 interaction [1]: failed to interact with ShMAX2 in the presence of KAR1 | ShHTL3-ShMAX2 interaction in the presence of ligand (ShHTL3 and ShMAX2): no direct interaction with ShMAX2 in the presence of KAR1 | ligand effect on AtHTL-AtMAX2 interaction (AtHTL–AtMAX2 interaction): did not interact with AtMAX2 in a KAR1-dependent manner | ShHTL1-ShMAX2 interaction in the presence of ligand [2]: no direct interaction with ShMAX2 in the presence of KAR1 | KAR1 binding by ShHTL7 L124F/T190F/C194F (ShHTL7 L124F/T190F/C194F): able to bind to KAR1 weakly | Kd (ShHTL3): 78 ± 3 µM | KAR1 binding ability of ShD14 (ShD14): no significant KAR1 binding ability

Reference: publication PMC6158167 (Nature Communications, 2018)
